The text below walks through data of US5919780A, “Tricyclic inhibitors of protein farnesyltransferase” (Warner Lambert Company, priority 1997, dated 1999).

In one test the test system is Ras protein. In words: Gel Shift Assay against ras protein. It is filed as cell-based. To be noted: ras-transformed cells, 18-hour incubation; read-out: Gel Shift Minimum Effective Dose. On the procedure: Twenty-four hours after planting 2×10^6 ras-transformed cells per treatment condition, the farnesylation inhibitor is added at varying concentrations. Following an 18-hour incubation period, cells are lysed in phosphate-buffered saline containing 1% Triton X-100, 0.5% sodium deoxycholate, and 0.1% SDS, pH 7.4 in the presence of several protease inhibitors (PMSF, antipain, leupeptin, pepstatin A, and aprotinin all at 1 μg/mL). Ras protein is immunoprecipitated from the supernatants by the addition of 3 μg v-H-ras Ab-2 (Y13-259 antibody from oncogene Science). After overnight immunoprecipitation, 30 μL of a 50% protein G-Sepharose slurry (Pharmacia) is added followed by 45-minute incubation. Pellets are resuspended in 2× tris-glycine loading buffer (Novex) containing 5% B-mercaptoethanol and then denatured by 5 minutes boiling prior to electrophoresis on 14% Tris-glycine SDS gels. Using Western transfer techniques, proteins are transferred to nitrocellulose membranes followed by blocking in blocking buffer. Upon overnight incubation with primary antibody (pan-ras Ab-2 from Oncogene Science), an antimouse HRP conjugate secondary antibody (Amersham) is employed for detection of the ras protein. Blots are developed using ECL techniques (Amersham).
For orientation: A gel shift assay detects complexes by their altered migration in electrophoresis.

Test [1] deals with T1, rat brain farnesyl protein transferase (Rattus norvegicus, UniProt Q02293+Q04631).
T1 construct: 40-fold purified rat brain farnesyl protein transferase; from tissue; host or cells: rat brain
In words: Farnesyl Protein Transferase Inhibition (PFT/FPT inhibitory activity). In kind it is biochemical. As for the experimental part: The protein:farnesyltransferase (PFT) or farnesyl protein transferase (FPT) inhibitory activity of compounds of Formula I was assayed in HEPES buffer (pH 7.4) containing 5 mM potassium phosphate and 20 μM ZnCl2. The solution also contained 7 mM DTT, 1.2 mM MgCl2, 0.1 mM leupeptin, 0.1 mM pepstatin, and 0.2 mM phenylmethylsulfonyl fluoride. Assays were performed in 96 well plates (Wallec) and employed solutions composed of varying concentrations of a compound of Formula I in 100% DMSO. Upon addition of both substrates, radiolabeled farnesyl pyrophosphate ([1-^3 H], specific activity 15-30 Ci/mmol, final concentration 0.12 μM) and (biotinyl)-Ahe-Tyr-Lys-Cys-Val-Ile-Met peptide (final concentration 0.2 μM), the enzyme reaction was started by addition of 40-fold purified rat brain farnesyl protein transferase. After incubation at 37° for 30 minutes, the reaction was terminated by diluting the reaction 2.5-fold with a stop buffer containing 1.5M magnesium acetate, 0.2M H3 PO4, 0.5% BSA, and strepavidin beads (Amersham) at a concentration of 1.3 mg/mL. After allowing the plate to settle for 30 minutes at room temperature, radioactivity was quantitated on a microBeta counter (Model 1450, Wallec). Compounds of Formula I show IC50 values of 0.8 to 60 μM in this assay and are thus valuable inhibitors of protein:farnesyltransferase enzyme which may be used in the medical treatment of tissue proliferative diseases, including cancer and restenosis. The assay was also carried out without 5 mM potassium phosphate.

The mark [2] stands for this setting: Hepes with 5 mM PO4^-3, read-out: Farnesyl Protein Transferase Inhibition Hepes/5 mM PO4^-3 IC50.
Where [3] appears, read: Hepes, without 5 mM phosphate, read-out: Farnesyl Protein Transferase Inhibition Hepes IC50.

Like-named read-outs stand apart in the source and are kept apart here.

`Clc1ccc2c(c1)N=C(NCc1cccnc1)c1ccccc1N2` [Example 1, (8-Chloro-5H-dibenzo[b,e][1,4]diazepin-11-yl)pyridin-3-ylmethyl-amine]: in the test with Ras protein, the minimal effective concentration was 50 µM. Also, the IC50 in test [1] (setting [2]) worked out at 5 µM; in test [1] (setting [3]), 3.7 µM.
As to `Clc1ccc2c(c1)N=C(NCCc1cnc[nH]1)c1ccccc1N2` [Example 2, (8-Chloro-5H-dibenzo[b,e][1,4]diazepin-11-yl)-[2-(3H-imidazol-4-yl)-ethyl]-amine], the minimal effective concentration with Ras protein turned out to be 25 µM. In addition, the IC50 in test [1] (setting [2]) is 3 µM; in test [1] (setting [3]) it was 2.4 µM.
For the compound `Clc1ccc2c(c1)N=C(NCCc1cccnc1)c1ccccc1N2` [Example 3, (8-Chloro-5H-dibenzo[b,e][1,4]diazepin-11-yl)-(2-pyridin-3-yl-ethyl)-amine], the minimal effective concentration in the test with Ras protein is greater than 50 µM. The results for the IC50 in test [1] (setting [2]) and in test [1] (setting [3]) were 57 µM and 36 µM, respectively.
As for `Clc1ccc2c(c1)N=C(NCCn1ccnc1)c1ccccc1N2` [Example 4, (8-Chloro-5H-dibenzo[b,e][1,4]diazepin-11-yl)-(2-imidazol-1-yl-ethyl)-amine], the minimal effective concentration in the test on Ras protein stood at 5 µM. In addition, the IC50 in test [1] (setting [2]) came out at 2.5 µM; in test [1] (setting [3]), 3 µM.
As for `Clc1ccc2c(c1)N=C(NCCCn1ccnc1)c1ccccc1N2` [Example 5, (8-Chloro-5H-dibenzo[b,e][1,4]diazepin-11-yl)-(3-imidazol-1-yl-propyl)-amine], the minimal effective concentration in the test with Ras protein stood at 2.5 µM. For the same compound, the results for the IC50 in test [1] (setting [2]) and in test [1] (setting [3]) were 4.5 µM and 6.8 µM, respectively.
For `Clc1ccc2c(c1)Nc1ccccc1C(NCc1cccnc1)=N2` [Example 6, (7-Chloro-5H-dibenzo[b,e][1,4]diazepin-11-yl)pyridin-3-ylmethyl-amine], in the test with Ras protein, the minimal effective concentration came to 50 µM. For the same compound, the IC50 in test [1] (setting [2]) was 5.6 µM; in test [1] (setting [3]), 5.5 µM.
The corresponding values for `c1cncc(CNC2=Nc3ccccc3Nc3ccccc32)c1` [Example 7, (5H-Dibenzo[b,e][1,4]diazepin-11-yl)-pyridin-3-ylmethyl-amine] are 50 µM, 12 µM and 23 µM.
`Cc1ccc2c(c1)N=C(NCc1cccnc1)c1ccccc1N2` [Example 8, (8-Methyl-5H-dibenzo[b,e][1,4]diazepin-11-yl)-pyridin-3-ylmethyl-amine]: the IC50 was determined as 31 µM in test [1] (setting [2]) and 24 µM in test [1] (setting [3]).
Regarding `COc1ccc2c(c1)N=C(NCc1cccnc1)c1ccccc1N2` [Example 9, (8-Methoxy-5H-dibenzo[b,e][1,4]diazepin-11-yl)-pyridin-3-ylmethyl-amine], the minimal effective concentration with Ras protein amounted to 50 µM. Further, the IC50 is 16 µM in test [1] (setting [2]) and 27 µM in test [1] (setting [3]).
Take `Brc1ccc2c(c1)N=C(NCc1cccnc1)c1ccccc1N2` [Example 10, (8-Bromo-5H-dibenzo[b,e][1,4]diazepin-11-yl)-pyridin-3-ylmethyl-amine]: the IC50 is 36 µM in test [1] (setting [2]) and 6 µM in test [1] (setting [3]).
As for `Clc1cc2c(cc1Cl)Nc1ccccc1C(NCc1cccnc1)=N2` [Example 11, (7,8-Dichloro-5H-dibenzo[b,e][1,4]diazepin-11-yl)-pyridin-3-ylmethyl-amine], the minimal effective concentration in the test on Ras protein was found to be 50 µM. The IC50 in test [1] (setting [2]) was 1.6 µM; in test [1] (setting [3]) it was 0.8 µM.
The corresponding values for `c1ccc(COc2ccc3c(c2)N=C(NCc2cccnc2)c2ccccc2N3)cc1` [Example 12, (8-Benzyloxy-5H-dibenzo[b,e][1,4]diazepin-11-yl)-pyridin-3-ylmethyl-amine] are greater than 50 µM, 37 µM and greater than 50 µM.
With `COc1cc2c(cc1OC)C(NCc1cccnc1)=Nc1cc(Cl)c(Cl)cc1N2` [Example 13, (7,8-Dichloro-2,3-dimethoxy-5H-dibenzo[b,e][1,4]diazepin-11-yl)-pyridin-3-ylmethyl-amine], the IC50 in test [1] (setting [2]) was determined as 50 µM; in test [1] (setting [3]) it was 30 µM.
Turning to `c1cncc(CNC2=Nc3ccccc3Nc3ncccc32)c1` [Example 14, (11H-Benzo[b]pyrido[2,3-e][1,4]diazepin-5-yl)-pyridin-3-ylmethyl-amine], the minimal effective concentration in the test on Ras protein came to 50 µM. Further, the IC50 was determined as 17 µM in test [1] (setting [2]) and 14 µM in test [1] (setting [3]).
For `CN1c2ccc(Cl)cc2N=C(NCc2cccnc2)c2ccccc21` [Example 15, (8-Chloro-5-methyl-5H-dibenzo[b,e][1,4]diazepin-11-yl)-pyridin-3-ylmethyl-amine], in the test with Ras protein, the minimal effective concentration is greater than 25 µM. For the same compound, the figures for the IC50 in test [1] (setting [2]) and in test [1] (setting [3]) were 17 µM and 12.2 µM, respectively.
Regarding `Clc1ccc2c(c1)N=C(NCc1cccnc1)c1ccccc1S2` [Example 16, (8-Chloro-dibenzo[b,f][1,4]thiazepin-11-yl)pyridin-3-ylmethyl-amine], the IC50 worked out at 22 µM in test [1] (setting [2]) and 9.8 µM in test [1] (setting [3]).
Regarding `O=S1(=O)c2ccc(Cl)cc2N=C(NCc2cccnc2)c2ccccc21` [Example 17, (8-Chloro-5,5-dioxo-5H-5λ^6-dibenzo[b,f][1,4]thiazepin-11-yl)-pyridin-3-ylmethyl-amine], the IC50 in test [1] (setting [2]) came to 6.1 µM; in test [1] (setting [3]), 5 µM.
The corresponding values for `Clc1ccc2c(c1)N=C(NCc1cccnc1)c1ccccc1O2` [Example 18, (8-Chloro-dibenzo[b,f][1,4]oxazepin-11-yl)-pyridin-3-ylmethyl-amine] are 16.5 µM and 8.7 µM.
